Converted amounts (≈) assume the structure as drawn.

The subject of one assay is Acinetobacter calcoaceticus. Kind of assay: Tested in vitro for inhibitory activity against gram negative bacteria Acinetobacter calcoaceticus OSMPV 113 strain. The format is functional.
For `CN1CCN(c2cc3c(c(N)c2N)c(=O)c(C(=O)O)cn3C2CC2)CC1`, the MIC is 128 µg/mL (≈ 358 µM).
For the molecule `CN1CCN(c2cc3c(cc2N)c(=O)c(C(=O)O)cn3C2CC2)CC1`, the MIC was 4 µg/mL (≈ 11.7 µM).
Take `Nc1cc2c(=O)c(C(=O)O)cn(C3CC3)c2cc1NC1CC1`: the MIC is 128 µg/mL (≈ 428 µM).
Take `CC(C)(C)n1cc(C(=O)O)c(=O)c2cc(N)c(N3CCSCC3)cc21`: the MIC was 0.5 µg/mL (≈ 1.38 µM).

The subject of a further assay is Enterobacter cloacae. Kind of assay: Tested in vitro for inhibitory activity against gram negative bacteria Enterobacter cloacae OMNFI 174 strain. The assay is classed as functional.
With `CN1CCN(c2cc3c(c(N)c2N)c(=O)c(C(=O)O)cn3C2CC2)CC1`, the MIC was 128 µg/mL (≈ 358 µM).
`CN1CCN(c2cc3c(cc2N)c(=O)c(C(=O)O)cn3C2CC2)CC1` showed an MIC of 0.25 µg/mL (≈ 0.73 µM).
On to `Nc1cc2c(=O)c(C(=O)O)cn(C3CC3)c2cc1NC1CC1`, for which the MIC came out at 64 µg/mL (≈ 214 µM).
As to `CC(C)(C)n1cc(C(=O)O)c(=O)c2cc(N)c(N3CCSCC3)cc21`, the MIC worked out at 2 µg/mL (≈ 5.53 µM).

For the next assay, the system named is Escherichia coli. Briefly: Tested in vitro for inhibitory activity against gram negative bacteria Escherichia coli ATCC 8739 cell lines at 5.8 ug/mL. The assay is classed as functional.
In turn, `CC(C)(C)n1cc(C(=O)O)c(=O)c2cc(N)c(N3CCSCC3)cc21` gave an MIC of 0.06 µg/mL (≈ 0.166 µM).

In another assay the test system is Escherichia coli. Briefly: Tested in vitro for inhibitory activity against gram negative bacteria Escherichia coli ATCC 8739 strain at 25 ug/mL. The format is functional.
Molecule `CN1CCN(c2cc3c(cc2N)c(=O)c(C(=O)O)cn3C2CC2)CC1` gave an MIC of 0.25 µg/mL (≈ 0.73 µM).

The subject of another assay is Escherichia coli. Kind of assay: Tested in vitro for inhibitory activity against gram negative bacteria Escherichia coli ATCC 8739 cell lines. The assay is classed as functional.
As to `CN1CCN(c2cc3c(c(N)c2N)c(=O)c(C(=O)O)cn3C2CC2)CC1`, the MIC was found to be 16 µg/mL (≈ 44.8 µM).
Consider `Nc1cc2c(=O)c(C(=O)O)cn(C3CC3)c2cc1NC1CC1`, for which the MIC amounted to 2 µg/mL (≈ 6.68 µM).

The next assay concerns Escherichia coli. Briefly: Tested in vitro for inhibitory activity against gram negative bacteria Escherichia coli ISF 432 cell lines at 5.8 ug/mL. The format is functional.
As for `CC(C)(C)n1cc(C(=O)O)c(=O)c2cc(N)c(N3CCSCC3)cc21`, the MIC turned out to be 0.03 µg/mL (≈ 0.083 µM).

The test system of a further assay is Escherichia coli. Kind of assay: Tested in vitro for inhibitory activity against gram negative bacteria Escherichia coli ISF 432 strain. The assay is classed as functional.
As to `CN1CCN(c2cc3c(c(N)c2N)c(=O)c(C(=O)O)cn3C2CC2)CC1`, the MIC was 16 µg/mL (≈ 44.8 µM).
Same read-out and setting: under `Nc1cc2c(=O)c(C(=O)O)cn(C3CC3)c2cc1NC1CC1` stands 4 µg/mL (≈ 13.4 µM).

In another assay the test system is Escherichia coli. Briefly: Tested in vitro for inhibitory activity against gram negative bacteria Escherichia coli ISF 432 strain at 25 ug/mL. The assay is classed as functional.
Turning to `CN1CCN(c2cc3c(cc2N)c(=O)c(C(=O)O)cn3C2CC2)CC1`, the MIC came to 0.03 µg/mL (≈ 0.0876 µM).

In the next assay the test system is Shigella. Briefly: Tested in vitro for inhibitory activity against gram negative bacteria Shigella enteritidis. The assay is classed as functional.
For the molecule `CN1CCN(c2cc3c(c(N)c2N)c(=O)c(C(=O)O)cn3C2CC2)CC1`, the MIC turned out to be 128 µg/mL (≈ 358 µM).
Regarding `CN1CCN(c2cc3c(cc2N)c(=O)c(C(=O)O)cn3C2CC2)CC1`, the MIC is 0.25 µg/mL (≈ 0.73 µM).
On the same count and under the same terms, under `Nc1cc2c(=O)c(C(=O)O)cn(C3CC3)c2cc1NC1CC1` stands 64 µg/mL (≈ 214 µM); under `CC(C)(C)n1cc(C(=O)O)c(=O)c2cc(N)c(N3CCSCC3)cc21`, 2 µg/mL (≈ 5.53 µM).

A further assay deals with Staphylococcus epidermidis. Briefly: Tested in vitro for inhibitory activity against gram positive bacteria Staphylococcus epidermidis HCF berset C strain. The format is functional.
`CN1CCN(c2cc3c(c(N)c2N)c(=O)c(C(=O)O)cn3C2CC2)CC1` gave an MIC of 128 µg/mL (≈ 358 µM).
For `CN1CCN(c2cc3c(cc2N)c(=O)c(C(=O)O)cn3C2CC2)CC1`, the MIC amounted to 4 µg/mL (≈ 11.7 µM).
`Nc1cc2c(=O)c(C(=O)O)cn(C3CC3)c2cc1NC1CC1` displayed an MIC of 128 µg/mL (≈ 428 µM).
In turn, `CC(C)(C)n1cc(C(=O)O)c(=O)c2cc(N)c(N3CCSCC3)cc21` showed an MIC of 0.5 µg/mL (≈ 1.38 µM).

The subject of the next assay is Staphylococcus aureus. Kind of assay: Tested in vitro for inhibitory activity against gram positive bacteria Staphylococcus aureus ATCC 6538 strain. The assay is classed as functional.
Take `CN1CCN(c2cc3c(c(N)c2N)c(=O)c(C(=O)O)cn3C2CC2)CC1`: the MIC was found to be 128 µg/mL (≈ 358 µM).
On the same count and under the same terms, as for `CN1CCN(c2cc3c(cc2N)c(=O)c(C(=O)O)cn3C2CC2)CC1`, the figure is 2 µg/mL (≈ 5.84 µM).
As to `Nc1cc2c(=O)c(C(=O)O)cn(C3CC3)c2cc1NC1CC1`, the MIC worked out at 128 µg/mL (≈ 428 µM).
The same measure, in the same setting: under `CC(C)(C)n1cc(C(=O)O)c(=O)c2cc(N)c(N3CCSCC3)cc21` stands 0.25 µg/mL (≈ 0.692 µM).

The next assay has as its system Staphylococcus aureus. Briefly: Tested in vitro for inhibitory activity against gram positive bacteria Staphylococcus aureus MPR 5 strain. The format is functional.
Consider `CN1CCN(c2cc3c(c(N)c2N)c(=O)c(C(=O)O)cn3C2CC2)CC1`, for which the MIC was determined as 128 µg/mL (≈ 358 µM).
The same measure, in the same setting: as for `CN1CCN(c2cc3c(cc2N)c(=O)c(C(=O)O)cn3C2CC2)CC1`, the figure is 2 µg/mL (≈ 5.84 µM); as for `Nc1cc2c(=O)c(C(=O)O)cn(C3CC3)c2cc1NC1CC1`, 128 µg/mL (≈ 428 µM).
In turn, `CC(C)(C)n1cc(C(=O)O)c(=O)c2cc(N)c(N3CCSCC3)cc21` had an MIC of 0.25 µg/mL (≈ 0.692 µM).

The subject of another assay is Enterococcus faecalis. Kind of assay: Tested in vitro for inhibitory activity against gram positive bacteria Streptococcus faecalis LEP Br strain. The assay is classed as functional.
`CN1CCN(c2cc3c(c(N)c2N)c(=O)c(C(=O)O)cn3C2CC2)CC1` yielded an MIC of 128 µg/mL (≈ 358 µM).
With `CN1CCN(c2cc3c(cc2N)c(=O)c(C(=O)O)cn3C2CC2)CC1`, the MIC amounted to 32 µg/mL (≈ 93.5 µM).
The molecule `Nc1cc2c(=O)c(C(=O)O)cn(C3CC3)c2cc1NC1CC1` returned an MIC of 128 µg/mL (≈ 428 µM).
`CC(C)(C)n1cc(C(=O)O)c(=O)c2cc(N)c(N3CCSCC3)cc21` had an MIC of 8 µg/mL (≈ 22.1 µM).

System in the next assay: not listed separately
Briefly: Minimum concentration at which cleaved linear DNA is observed. The assay is classed as functional.
Turning to `CC(C)(C)n1cc(C(=O)O)c(=O)c2cc(N)c(N3CCSCC3)cc21`, the Concentration came out at 5.8 µg/mL.

In a further assay the test system is Staphylococcus epidermidis. Briefly: Tested in vitro for inhibitory activity against gram positive bacteria Staphylococcus epidermidis CPHL A2 strain. The format is functional.
As to `CN1CCN(c2cc3c(c(N)c2N)c(=O)c(C(=O)O)cn3C2CC2)CC1`, the MIC turned out to be 128 µg/mL (≈ 358 µM).
As for `CN1CCN(c2cc3c(cc2N)c(=O)c(C(=O)O)cn3C2CC2)CC1`, the MIC was found to be 2 µg/mL (≈ 5.84 µM).
On to `Nc1cc2c(=O)c(C(=O)O)cn(C3CC3)c2cc1NC1CC1`, for which the MIC worked out at 128 µg/mL (≈ 428 µM).
`CC(C)(C)n1cc(C(=O)O)c(=O)c2cc(N)c(N3CCSCC3)cc21`: the MIC turned out to be 0.5 µg/mL (≈ 1.38 µM).

In another assay the test system is Klebsiella pneumoniae. Briefly: Tested in vitro for inhibitory activity against gram negative bacteria Klebsiella pneumoniae ATCC 10031 strain. The format is functional.
`CN1CCN(c2cc3c(c(N)c2N)c(=O)c(C(=O)O)cn3C2CC2)CC1` registered an MIC of 32 µg/mL (≈ 89.5 µM).
With `CN1CCN(c2cc3c(cc2N)c(=O)c(C(=O)O)cn3C2CC2)CC1`, the MIC was 0.03 µg/mL (≈ 0.0876 µM).
The molecule `Nc1cc2c(=O)c(C(=O)O)cn(C3CC3)c2cc1NC1CC1` came in with an MIC of 2 µg/mL (≈ 6.68 µM).
In turn, `CC(C)(C)n1cc(C(=O)O)c(=O)c2cc(N)c(N3CCSCC3)cc21` showed an MIC of 0.03 µg/mL (≈ 0.083 µM).

The next assay concerns Providencia stuartii. Kind of assay: Tested in vitro for inhibitory activity against gram negative bacteria Providencia stuartii CNUR 5 strain. The format is functional.
Molecule `CN1CCN(c2cc3c(c(N)c2N)c(=O)c(C(=O)O)cn3C2CC2)CC1` yielded an MIC of 128 µg/mL (≈ 358 µM).
On the same count and under the same terms, as for `CN1CCN(c2cc3c(cc2N)c(=O)c(C(=O)O)cn3C2CC2)CC1`, the figure is 8 µg/mL (≈ 23.4 µM); as for `Nc1cc2c(=O)c(C(=O)O)cn(C3CC3)c2cc1NC1CC1`, 128 µg/mL (≈ 428 µM).
Molecule `CC(C)(C)n1cc(C(=O)O)c(=O)c2cc(N)c(N3CCSCC3)cc21` gave an MIC of 4 µg/mL (≈ 11.1 µM).

The subject of a further assay is Pseudomonas aeruginosa. Kind of assay: Tested in vitro for inhibitory activity against gram negative bacteria Pseudomonas aeruginosa ATCC 9027 strain. The assay is classed as functional.
`CN1CCN(c2cc3c(c(N)c2N)c(=O)c(C(=O)O)cn3C2CC2)CC1` registered an MIC of 128 µg/mL (≈ 358 µM).
In turn, `CN1CCN(c2cc3c(cc2N)c(=O)c(C(=O)O)cn3C2CC2)CC1` showed an MIC of 4 µg/mL (≈ 11.7 µM).
As to `Nc1cc2c(=O)c(C(=O)O)cn(C3CC3)c2cc1NC1CC1`, the MIC came to 128 µg/mL (≈ 428 µM).
`CC(C)(C)n1cc(C(=O)O)c(=O)c2cc(N)c(N3CCSCC3)cc21` had an MIC of 4 µg/mL (≈ 11.1 µM).
